In patent US6573218B1, “Fused-benzene derivatives useful as herbicides” (Ishihara Sangyo Kaisha, Ltd., priority 1998, dated 2003):

Key:
Type in all cases: in vivo
[1] = tested on: soybean (Glycine max L., var. Pella 86, SOY); assay: Post-emerge greenhouse crop damage test
Description: (§1) A standard greenhouse herbicide activity screening system was used to evaluate the herbicidal efficacy and crop safety of these test compounds. Seven broadleaf weed species including redroot pigweed (Amaranthus retroflexus, AMARE), velvetleaf (Abutilon theophrasti, ABUTH), sicklepod (Cassia obtusifolia, CASOB), ivyleaf morningglory (Ipomoea hederacea, IPOHE), lambsquarters (Chenopodium album, CHEAL), common ragweed (Ambrosia artemisiifolia L., AMBEL), and cocklebur (Xanthium strumarium, XANST) were used as test species. Four grass weed species including green foxtail (Setaria viridis, SETVI), barnyardgrass (Echinochloa crus-galli, ECHCG), johnsongrass (Sorghum halepense, SORHA), and large crabgrass (Digitaria sanguinalis, DIGSA) were also used. In addition, three crop species, field corn (Zea mays L., var. Dekalb 527, CORN), soybean (Glycine max L., var. Pella 86, SOY), and upland rice (Ory0a sp., var.Tebonnet, RICE) were included.
(§2) All plants were grown in 10 cm square plastic pots which were filled with a sandy loam soil mix. For pre-emerge tests, seeds were planted one day prior to application of the test compounds. For post-emerge tests, seeds were planted 8-21 days prior to the test to allow emergence and good foliage development prior to application of the test substances. At the time of the post-emerge application, plants of all species were usually at the 2-3 leaf stage of development.
(§3) All test compounds were dissolved in acetone and applied to the test units in a volume of 187 l/ha. Test materials were applied at rates ranging from 15 g ai/ha to 1000 g ai/ha using a track sprayer equipped with a TJ8001E even flow flat fan spray nozzle. Plants were arranged on a shelf so that the top of the canopy (post-emerge) or top of the soil surface (pre-emerge) was 40-45 cm below the nozzle. Pressurized air was used to force the test solution through the nozzle as it was mechanically advanced over the top of all test plants/pots. This application simulates a typical commercial field herbicide application.
(§4) In the post-emerge test, a commercial non-ionic surfactant was also included (0.25% v/v) to enhance wetting of the leaf surfaces of target plants. Immediately after application, test units of the pre-emerge applications were watered at the soil surface to incorporate the test materials.
(§5) At 14 days after application of the test materials, phytotoxicity ratings were recorded. A rating scale of 0-100 was used as previously described in Research Methods in Weed Science, 2nd edition, B. Truelove, Ed., Southern Weed Science Society, Auburn University, Auburn, Ala., 1977. Briefly, “0” corresponds to no damage and “100” corresponds to complete death of all plants in the test unit. This scale was used both to determine efficacy against weed species and damage to crop species. Herbicide activity data for various compounds of this invention, which are shown by compound No. in Tables 1-14, are shown in Tables 16 and 17.

[2] = tested on: field corn (Zea mays L., var. Dekalb 527, CORN); assay: Post-emerge greenhouse crop damage test
Description: as §1, §2, §3, §4, §5

[3] = tested on: upland rice (Ory0a sp., var.Tebonnet, RICE); assay: Post-emerge greenhouse crop damage test
Description: as §1, §2, §3, §4, §5

[4] = tested on: redroot pigweed (Amaranthus retroflexus, AMARE); assay: Post-emerge greenhouse herbicide test; details: 250 g ai/ha, 14 days after application
Description: as §1, §2, §3, §4, §5

[5] = tested on: green foxtail (Setaria viridis, SETVI); assay: Post-emerge greenhouse herbicide test; details: 250 g ai/ha, 14 days after application
Description: as §1, §2, §3, §4, §5

[6] = tested on: large crabgrass (Digitaria sanguinalis, DIGSA); assay: Post-emerge greenhouse herbicide test; details: 250 g ai/ha, 14 days after application
Description: as §1, §2, §3, §4, §5

[7] = tested on: sicklepod (Cassia obtusifolia, CASOB); assay: Post-emerge greenhouse herbicide test; details: 250 g ai/ha, 14 days after application
Description: as §1, §2, §3, §4, §5

[8] = tested on: velvetleaf (Abutilon theophrasti, ABUTH); assay: Post-emerge greenhouse herbicide test; details: 250 g ai/ha, 14 days after application
Description: as §1, §2, §3, §4, §5

[9] = tested on: lambsquarters (Chenopodium album, CHEAL); assay: Post-emerge greenhouse herbicide test; details: 250 g ai/ha, 14 days after application
Description: as §1, §2, §3, §4, §5

[10] = tested on: barnyardgrass (Echinochloa crus-galli, ECHCG); assay: Post-emerge greenhouse herbicide test; details: 250 g ai/ha, 14 days after application
Description: as §1, §2, §3, §4, §5

[11] = tested on: johnsongrass (Sorghum halepense, SORHA); assay: Post-emerge greenhouse herbicide test; details: 250 g ai/ha, 14 days after application
Description: as §1, §2, §3, §4, §5

[12] = tested on: common ragweed (Ambrosia artemisiifolia L., AMBEL); assay: Post-emerge greenhouse herbicide test; details: 250 g ai/ha, 14 days after application
Description: as §1, §2, §3, §4, §5

[13] = tested on: ivyleaf morningglory (Ipomoea hederacea, IPOHE); assay: Post-emerge greenhouse herbicide test; details: 250 g ai/ha, 14 days after application
Description: as §1, §2, §3, §4, §5

[14] = tested on: redroot pigweed (Amaranthus retroflexus, AMARE); assay: Pre-emerge greenhouse herbicide test; details: 250 g ai/ha, 14 days after application, scale 0-100 (0 no damage, 100 complete death)
Description: as §1, §2, §3, §4, §5

[15] = tested on: green foxtail (Setaria viridis, SETVI); assay: Pre-emerge greenhouse herbicide test; details: 250 g ai/ha, 14 days after application, scale 0-100 (0 no damage, 100 complete death)
Description: as §1, §2, §3, §4, §5

[16] = tested on: large crabgrass (Digitaria sanguinalis, DIGSA); assay: Pre-emerge greenhouse herbicide test; details: 250 g ai/ha, 14 days after application, scale 0-100 (0 no damage, 100 complete death)
Description: as §1, §2, §3, §4, §5

[17] = tested on: sicklepod (Cassia obtusifolia, CASOB); assay: Pre-emerge greenhouse herbicide test; details: 250 g ai/ha, 14 days after application, scale 0-100 (0 no damage, 100 complete death)
Description: as §1, §2, §3, §4, §5

[18] = tested on: velvetleaf (Abutilon theophrasti, ABUTH); assay: Pre-emerge greenhouse herbicide test; details: 250 g ai/ha, 14 days after application, scale 0-100 (0 no damage, 100 complete death)
Description: as §1, §2, §3, §4, §5

[19] = tested on: lambsquarters (Chenopodium album, CHEAL); assay: Pre-emerge greenhouse herbicide test; details: 250 g ai/ha, 14 days after application, scale 0-100 (0 no damage, 100 complete death)
Description: as §1, §2, §3, §4, §5

[20] = tested on: barnyardgrass (Echinochloa crus-galli, ECHCG); assay: Pre-emerge greenhouse herbicide test; details: 250 g ai/ha, 14 days after application, scale 0-100 (0 no damage, 100 complete death)
Description: as §1, §2, §3, §4, §5

[21] = tested on: johnsongrass (Sorghum halepense, SORHA); assay: Pre-emerge greenhouse herbicide test; details: 250 g ai/ha, 14 days after application, scale 0-100 (0 no damage, 100 complete death)
Description: as §1, §2, §3, §4, §5

[22] = tested on: ivyleaf morningglory (Ipomoea hederacea, IPOHE); assay: Pre-emerge greenhouse herbicide test; details: 250 g ai/ha, 14 days after application, scale 0-100 (0 no damage, 100 complete death)
Description: as §1, §2, §3, §4, §5

[23] = tested on: soybean (Glycine max L., var. Pella 86, SOY); assay: Pre-emerge greenhouse crop damage test
Description: as §1, §2, §3, §4, §5

[24] = tested on: field corn (Zea mays L., var. Dekalb 527, CORN); assay: Pre-emerge greenhouse crop damage test
Description: as §1, §2, §3, §4, §5

[25] = tested on: upland rice (Ory0a sp., var.Tebonnet, RICE); assay: Pre-emerge greenhouse crop damage test; details: in vivo
Description: as §1, §2, §3, §4, §5

[26] = 250 g ai/ha, post-emerge, 14 days after application
[27] = pre-emerge, 250 g ai/ha, 14 days after application, scale 0-100 (0 no damage, 100 complete death)
[28] = var. Pella 86, soybean (Glycine max L.), in vivo, 14 days
[29] = var. Dekalb 527, field corn (Zea mays L.), in vivo, 14 days

| SMILES | Post-emerge Herbicidal Activity AMARE (phytotoxicity rating 0-100) [4] | Post-emerge Herbicidal Activity SETVI (phytotoxicity rating 0-100) [5] | Post-emerge Herbicidal Activity DIGSA (phytotoxicity rating 0-100) [6] | Post-emerge Herbicidal Activity CASOB (phytotoxicity rating 0-100) [7] | Post-emerge Herbicidal Activity ABUTH (phytotoxicity rating 0-100) [8] | Post-emerge Herbicidal Activity CHEAL (phytotoxicity rating 0-100) [9] | Post-emerge Herbicidal Activity ECHCG (phytotoxicity rating 0-100) [10] | Post-emerge Herbicidal Activity SORHA (phytotoxicity rating 0-100) [11] | Post-emerge Herbicidal Activity AMBEL (phytotoxicity rating 0-100) [12] | Post-emerge Herbicidal Activity IPOHE (phytotoxicity rating 0-100) [13] | Pre-emerge Herbicidal Activity AMARE (phytotoxicity rating) [14] | Pre-emerge Herbicidal Activity SETVI (phytotoxicity rating) [15] | Pre-emerge Herbicidal Activity DIGSA (phytotoxicity rating) [16] | Pre-emerge Herbicidal Activity CASOB (phytotoxicity rating) [17] | Pre-emerge Herbicidal Activity ABUTH (phytotoxicity rating) [18] | Pre-emerge Herbicidal Activity CHEAL (phytotoxicity rating) [19] | Pre-emerge Herbicidal Activity ECHCG (phytotoxicity rating) [20] | Pre-emerge Herbicidal Activity SORHA (phytotoxicity rating) [21] | Pre-emerge Herbicidal Activity IPOHE (phytotoxicity rating) [22] | other results |
| --- | --- | --- | --- | --- | --- | --- | --- | --- | --- | --- | --- | --- | --- | --- | --- | --- | --- | --- | --- | --- |
| Cc1nc2c(-n3ncc(C(F)(F)F)cc3=O)c(F)cc(Cl)c2o1 [Compound 12-1] | 70 | 0 | 0 | 10 | 95 | 0 | 50 | 0 | 20 | 40 | 100 | 100 | 100 | 90 | 100 | 100 | 100 | 100 | 99 | Post-emerge crop damage SOY (phytotoxicity rating 0-100) [1, 26]: 50; Post-emerge crop damage CORN (phytotoxicity rating 0-100) [2, 26]: 0; Post-emerge crop damage RICE (phytotoxicity rating 0-100) [3, 26]: 10; Pre-emerge Herbicidal Activity SOY (crop damage rating) [23, 27]: 70; Pre-emerge Herbicidal Activity CORN (crop damage rating) [24, 27]: 100; Pre-emerge Herbicidal Activity RICE (crop damage rating) [25]: 90 |
| COC(=O)CC1CNc2c(c(Cl)cc(F)c2-n2c(=O)cc(C(F)(F)F)n(C)c2=O)O1 (centres unmarked) [Compound 2-8, 3-[8-Chloro-6-fluoro-2-(methoxycarbonyl)methyl-3,4-dihydro-2H-1,4-benzoxazin-5-yl]-1-methyl-6-trifluoromethyl-2,4(1H,3H)-pyrimidindione] | 100 | 100 | 50 | 50 | 100 | 100 | 80 | 95 | 100 | 100 | 100 | 100 | 100 | 100 | 100 | 100 | 60 | 100 | 100 | Post-emerge crop damage SOY (phytotoxicity rating 0-100) [1, 28]: 100; Post-emerge crop damage CORN (phytotoxicity rating 0-100) [2, 29]: 70; Post-emerge crop damage RICE (phytotoxicity rating 0-100) ([3]; var. Tebonnet, upland rice (Ory0a sp.), in vivo, 14 days): 90; Pre-emerge Herbicidal Activity SOY (crop damage rating) [23, 28]: 100; Pre-emerge Herbicidal Activity CORN (crop damage rating) [24, 29]: 70; Pre-emerge Herbicidal Activity RICE (crop damage rating) ([25]; var. Tebonnet, upland rice (Ory0a sp.), 14 days): 50 |
